Measurements taken from article PMC9448375 (Drug Delivery, 2022).

Key:
[1] = log P by shake-flask method; type: physicochemical; conditions: shake-flask n-octanol/distilled water, mutually pre-saturated; 25 °C, 24 h, 50 rpm; HPLC of INS in both phases; HIP complexes at INS:counterion 1:6; mean, n = 3
Protocol: The log P values of different HIP complexes were determined by the shake-flask method (Zhang et al., [2021]). Prior to the experiment, distilled water and n-octanol were poured into a separatory funnel, vigorously shaken, and then allowed to settle for 24 h to mutually saturate. Stock solutions of HIP complexes in the saturated n-octanol were prepared and mixed with pre-saturated distilled water at a 1:10 (vol/vol) ratio. INS was dissolved in saturated distilled water and then mixed with pre-saturated n-octanol. The tube was incubated at 25 °C for 24 h with continuous shaking (50 rpm) and allowed to separate for 1 h, after which it was centrifuged at 16,000g for 10 min. Afterward, samples from both phases were carefully analyzed by HPLC.

[2] = biological target: T1, pepsin (Sus scrofa, UniProt P00791); experiment: Stability against GI enzymes in simulated gastric fluid (SGF); type: in vitro ADME; conditions: SGF: pepsin 2,000 U/mL in pH 1.2 solution, mixed 1:1 with sample (INS 0.2 mg/mL), 37 °C, 100 rpm, HPLC, n = 3
T1 construct: purchased Sigma–Aldrich Chemical Co. (St. Louis, MO, USA)
T1 sequence (P00791 60-385): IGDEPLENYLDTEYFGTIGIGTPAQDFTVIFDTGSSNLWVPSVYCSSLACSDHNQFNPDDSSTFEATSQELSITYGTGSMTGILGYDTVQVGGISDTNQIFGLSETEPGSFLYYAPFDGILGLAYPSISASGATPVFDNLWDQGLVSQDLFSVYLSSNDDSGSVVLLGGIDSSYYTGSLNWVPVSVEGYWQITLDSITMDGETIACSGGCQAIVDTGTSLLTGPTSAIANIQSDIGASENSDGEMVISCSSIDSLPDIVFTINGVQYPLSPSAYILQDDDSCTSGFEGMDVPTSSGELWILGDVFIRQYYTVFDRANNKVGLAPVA
Protocol: Simulated gastric fluid (SGF) was prepared by adding pepsin to pH 1.2 solution to a concentration of 2,000 U/mL. Simulated intestinal fluid (SIF) was prepared by adding trypsin (5,000 BAEE U/mL), chymotrypsin (20 IU/mL), lipase (400 IU/mL), and bile salt (10 mM) to the Tris buffer (50 mM, pH 8.0). […] Then, 250 µL of either SGF or SIF was added to the 250 µL of each formulation for enzymatic degradation. The mixture was transferred to a shaking incubator (SI-900R; JeioTech, Daejeon, Korea) and incubated at 37 °C under shaking (100 rpm). Finally, […] of cooled 0.1% TFA in methanol was added at predetermined time points (0, 5, 15, 30, 60, and 120 min) to quench the enzymatic reaction. For intestinal enzyme study, the reaction was continued for 240 min. Finally, the amount of INS remaining in the obtained samples was quantified by HPLC, as described earlier.

[3] = system: trypsin, chymotrypsin, lipase, bile salt; experiment: Stability against GI enzymes in simulated intestinal fluid (SIF); type: in vitro ADME; conditions: SIF: trypsin 5,000 BAEE U/mL, chymotrypsin 20 IU/mL, lipase 400 IU/mL, bile salt 10 mM, Tris 50 mM pH 8.0; mixed 1:1 with sample (INS 0.2 mg/mL); 37 °C, 100 rpm; 0–240 min; HPLC; first-order fit; n = 3
Protocol: Simulated intestinal fluid (SIF) was prepared by adding trypsin (5,000 BAEE U/mL), chymotrypsin (20 IU/mL), lipase (400 IU/mL), and bile salt (10 mM) to the Tris buffer (50 mM, pH 8.0). […] Then, 250 µL of either SGF or SIF was added to the 250 µL of each formulation for enzymatic degradation. The mixture was transferred to a shaking incubator (SI-900R; JeioTech, Daejeon, Korea) and incubated at 37 °C under shaking (100 rpm). Finally, 500 mL of cooled 0.1% TFA in methanol was added at predetermined time points (0, 5, 15, 30, 60, and 120 min) to quench the enzymatic reaction. For intestinal enzyme study, the reaction was continued for 240 min.

[4] = system: streptozotocin-induced diabetic Sprague–Dawley rats; experiment: Pharmacodynamic study in diabetic rats (blood glucose level); type: in vivo, rat; conditions: for AAC0–8h (area above the blood glucose level curve, % of initial, 0–8 h) / BGLmin (minimum blood glucose level, % of initial levels) / Tmin (time to reach BGLmin): mean ± SD, n = 5–7
Protocol: To establish animal models of type 1 diabetes mellitus, male Sprague–Dawley rats were injected intraperitoneally with freshly prepared single doses of streptozotocin (60 mg/kg) dissolved in citrate buffer (0.1 M, pH 4.5). The successful induction of diabetes was corroborated by an increase in blood glucose levels after five days. Only the rats with fasting blood glucose levels higher than 250 mg/dL were considered diabetic.
All rats were fasted for 12 h before the experiment, with free access to water. […] Subsequently, blood samples were collected from the tail vein at different time intervals (0, 0.5, 1, 1.5, 2, 3, 4, 5, 6, and 8 h) and tested using a glucometer (GreenDoctor, GREENCROSS MEDIS Co., Chungnam, Korea). Based on the blood glucose level at 0 h (initial), each blood glucose level was converted to the relative level (% of initial). A value of 100% of the relative level was chosen as a reference point (upper limit) for the determination of the area above the blood glucose (% of initial)–time curve (AAC) values for decreased blood glucose levels.

Insulin
log P [1]: –1.61 | Rate constant of INS degradation, simulated gastric fluid ([2]; 0–120 min, first-order fit): 0.1854 min⁻¹ | Half-life of INS, simulated gastric fluid [2]: 3.74 min | Rate constant of INS degradation, simulated intestinal fluid [3]: 0.1980 min⁻¹ | AAC0–8h (area above the blood glucose level curve, % of initial, 0–8 h) ([4]; SC injection, 5 IU/kg): 439.29 ± 30.00 %·h | BGLmin (minimum blood glucose level, % of initial levels) ([4]; SC injection, 5 IU/kg): 22.78 ± 1.92% | Tmin (time to reach BGLmin) ([4]; SC injection, 5 IU/kg): 3.20 ± 0.84 h | AAC0–8h (area above the blood glucose level curve, % of initial, 0–8 h) ([4]; oral gavage, 50 IU/kg): –44.47 ± 38.33 %·h | BGLmin (minimum blood glucose level, % of initial levels) ([4]; oral gavage, 50 IU/kg): 97.92 ± 1.23% | Tmin (time to reach BGLmin) ([4]; oral gavage, 50 IU/kg): 2.75 ± 0.25 h | antidiabetic effects (blood glucose level versus time) ([4]; oral, 50 IU/kg): negligible
